Data on 3 molecules can be found in ChEMBL document CHEMBL1158226, “Comparative study of the vasodilatory effects of three quinazoline alkaloids isolated from Evodia rutaecarpa” (J Nat Prod, 1996).

Assay [1] relates to Aorta. Briefly: Vasodilatory activity in Sprague-Dawley rat endothelium-denuded thoracic aortic ring assessed as inhibition of phenylephrine-induced contraction. The format is functional, tissue-based.
Assay [2] has as its system Aorta. Briefly: Vasodilatory activity in Sprague-Dawley rat endothelium-intact thoracic aortic ring assessed as inhibition of phenylephrine-induced contraction. Type of assay: functional, tissue-based.
Assay [3] in a line: Binding affinity to DHP binding site of L-type calcium channel at > 100 uM by radioligand binding assay.
Assay [4] deals with T1, Adrenergic receptor alpha-1 (Rattus norvegicus, UniProt P15823+P23944+P43140).
T1 sequence (P15823 whole entry): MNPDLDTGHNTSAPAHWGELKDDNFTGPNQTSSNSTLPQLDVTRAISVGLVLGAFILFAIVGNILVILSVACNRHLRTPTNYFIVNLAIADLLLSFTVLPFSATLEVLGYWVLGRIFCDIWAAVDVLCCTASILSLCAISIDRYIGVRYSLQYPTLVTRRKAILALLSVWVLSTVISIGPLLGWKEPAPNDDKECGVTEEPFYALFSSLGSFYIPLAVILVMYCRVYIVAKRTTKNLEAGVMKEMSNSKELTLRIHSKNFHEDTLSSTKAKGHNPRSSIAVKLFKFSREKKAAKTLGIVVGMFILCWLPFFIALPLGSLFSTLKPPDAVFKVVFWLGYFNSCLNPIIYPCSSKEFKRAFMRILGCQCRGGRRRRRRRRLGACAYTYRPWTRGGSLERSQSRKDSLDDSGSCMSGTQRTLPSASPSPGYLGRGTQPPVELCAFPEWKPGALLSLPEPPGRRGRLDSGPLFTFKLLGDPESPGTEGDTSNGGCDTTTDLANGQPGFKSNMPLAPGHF
T1 sequence (P23944 whole entry): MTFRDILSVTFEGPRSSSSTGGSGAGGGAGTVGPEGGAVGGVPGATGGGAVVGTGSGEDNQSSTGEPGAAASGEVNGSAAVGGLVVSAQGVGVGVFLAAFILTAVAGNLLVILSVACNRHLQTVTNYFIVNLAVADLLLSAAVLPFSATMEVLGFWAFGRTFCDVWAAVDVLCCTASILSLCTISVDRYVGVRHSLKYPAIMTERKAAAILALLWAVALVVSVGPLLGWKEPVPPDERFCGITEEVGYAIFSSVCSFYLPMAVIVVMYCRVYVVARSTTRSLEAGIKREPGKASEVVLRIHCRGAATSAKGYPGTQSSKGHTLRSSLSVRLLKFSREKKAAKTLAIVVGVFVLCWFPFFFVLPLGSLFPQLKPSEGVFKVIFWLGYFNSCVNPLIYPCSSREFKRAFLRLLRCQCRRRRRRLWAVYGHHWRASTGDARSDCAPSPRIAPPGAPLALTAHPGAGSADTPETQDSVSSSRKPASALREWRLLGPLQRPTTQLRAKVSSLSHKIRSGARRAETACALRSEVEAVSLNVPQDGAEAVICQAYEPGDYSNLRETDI
T1 sequence (P43140 whole entry): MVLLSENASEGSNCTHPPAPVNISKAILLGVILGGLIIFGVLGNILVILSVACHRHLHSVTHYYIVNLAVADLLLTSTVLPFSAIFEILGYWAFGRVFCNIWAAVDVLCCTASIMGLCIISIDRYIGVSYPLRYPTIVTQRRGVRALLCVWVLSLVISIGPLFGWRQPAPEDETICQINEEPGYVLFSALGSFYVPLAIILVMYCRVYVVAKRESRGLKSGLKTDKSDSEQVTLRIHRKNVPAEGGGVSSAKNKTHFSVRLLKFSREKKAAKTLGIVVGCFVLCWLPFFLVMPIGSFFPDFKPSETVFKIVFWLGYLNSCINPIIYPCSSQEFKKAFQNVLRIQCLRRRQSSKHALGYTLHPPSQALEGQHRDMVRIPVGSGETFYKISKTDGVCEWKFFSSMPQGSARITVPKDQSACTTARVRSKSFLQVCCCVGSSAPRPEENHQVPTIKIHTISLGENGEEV
Nature of the assay: Displacement of [3H]prazosin from alpha1 adrenoceptor in rat heart membrane. The format is cell membranes.

A short description of assay [5]: Antagonist activity at alpha-adrenoceptor in Sprague-Dawley rat endothelium denuded thoracic aorta assessed as inhibition of phenylephrine-induced contraction. The format is functional, tissue-based.
Assay [6] concerns Aorta. Briefly: Vasodilatory activity in endothelium-denuded Sprague-Dawley rat thoracic aortic ring assessed as inhibition of phenylephrine-induced contraction preincubated with L-NAME for 10 mins. Type of assay: functional, tissue-based.
For assay [7], the system named is Aorta. Briefly: Vasodilatory activity in endothelium-denuded Sprague-Dawley rat thoracic aortic ring assessed as inhibition of phenylephrine-induced contraction preincubated with TEA for 1 hr. Type of assay: functional, tissue-based.
The subject of assay [8] is Aorta. Briefly: Vasodilatory activity in endothelium-denuded Sprague-Dawley rat thoracic aortic ring assessed as inhibition of phenylephrine-induced contraction in absence of L-NAME. Type of assay: functional, tissue-based.
The test system of assay [9] is Aorta. Briefly: Vasodilatory activity in Sprague-Dawley rat endothelium-intact thoracic aortic ring assessed as inhibition of phenylephrine-induced contraction at 0.1 to 100 uM. The format is functional.
Assay [10] deals with Aorta. Nature of the assay: Vasodilatory activity in Sprague-Dawley rat endothelium-denuded thoracic aortic ring assessed as inhibition of phenylephrine-induced contraction at 0.1 to 100 uM. Type of assay: functional.
Assay [11] deals with Aorta. Nature of the assay: Vasodilatory activity in Sprague-Dawley rat thoracic aortic ring assessed as inhibition of potassium chloride-induced contraction. Type of assay: functional, tissue-based.
Assay [12] in a line: Antagonist activity at 5-HT receptor in Sprague-Dawley rat endothelium denuded thoracic aorta assessed as inhibition of 5HT-induced contraction. Type of assay: functional, tissue-based.
The nature of assay [13]: Binding affinity to DHP binding site of L-type calcium channel by radioligand binding assay.
Assay [14] has as its system Aorta. Briefly: Vasodilatory activity in Sprague-Dawley rat endothelium-intact thoracic aortic ring assessed as inhibition of phenylephrine-induced contraction at 100 uM. Type of assay: functional. Details: scale not given: the % may be the effect or the level left.

Activity calls are given as the source filed them. The calls are words filed in the database; no cut-off is given here.

With `C[n+]1c2n(c(=O)c3ccccc31)CCc1c-2[nH]c2ccccc12` [DEHYDROEVODIAMINE], the EC50 in the assay with Aorta [1] was 7780 nM; in the assay with Aorta [2], 1640 nM; with Aorta [6], 5830 nM; with Aorta [8], 1600 nM. Further, the outcome (in [3]; with Aorta [7]) was Active. Besides, the Ki in [4] was 2400 nM. Further, the pA2 in assay [5] is 6.89. Moreover, the Emax with Aorta [9] and in the assay with Aorta [10] was 100% throughout.

Turning to `CN1c2ccccc2C(=O)N2CCc3c([nH]c4ccccc34)[C@@H]21` [EVODIAMINE], the values for the EC50 in the assay on Aorta [1], in the assay on Aorta [2] and in the assay with Aorta [6] were 8140 nM, 930 nM and 2920 nM, respectively. The outcome with Aorta [11] and in the assay with Aorta [7] was Active. For the same molecule, the pA2 in [12] is listed as 6.25. For the same molecule, the Emax in the assay on Aorta [9] was determined as 100%; in the assay with Aorta [10], 49.8%. In assay [13], the outcome was inactive.

`O=c1c2ccccc2nc2n1CCc1c-2[nH]c2ccccc12` [RUTAECARPINE]: the figures for the EC50 with Aorta [1] and in the assay with Aorta [2] were 1750 nM and 1050 nM, respectively. The Activity with Aorta [14] was 72%. Further, in the assay on Aorta [7], the result was Active. Also, the Emax was 96% with Aorta [9] and 23% with Aorta [10]. For the same molecule, the result in assay [13] was inactive.

Broadly, the EC50 is the concentration needed to bring the measured effect to its halfway point. As a reminder, the Ki is the dissociation constant of the complex between target and ligand, obtained from inhibition or displacement. In general, pA2 refers to the negative logarithm of the molar antagonist concentration that doubles the agonist concentration needed for the same response. Broadly, the Emax is the greatest response seen or fitted, relative to the assay's reference.
